From patent publication US8168673B2, “Compounds having CRTH2 antagonist activity” (Oxagen Limited, priority 2008, dated 2012)

Key:
CRTH2 Receptor [1] = biological target: T1, CRTH2 Receptor (Homo sapiens, UniProt Q9Y5Y4); assay: Radioligand binding assay, [3H]PGD2 on CHO/CRTH2 cell membranes; conditions: summary statement on Table 1
T1 construct: expressed in transfected cells; membranes
T1 sequence (Q9Y5Y4 1-395): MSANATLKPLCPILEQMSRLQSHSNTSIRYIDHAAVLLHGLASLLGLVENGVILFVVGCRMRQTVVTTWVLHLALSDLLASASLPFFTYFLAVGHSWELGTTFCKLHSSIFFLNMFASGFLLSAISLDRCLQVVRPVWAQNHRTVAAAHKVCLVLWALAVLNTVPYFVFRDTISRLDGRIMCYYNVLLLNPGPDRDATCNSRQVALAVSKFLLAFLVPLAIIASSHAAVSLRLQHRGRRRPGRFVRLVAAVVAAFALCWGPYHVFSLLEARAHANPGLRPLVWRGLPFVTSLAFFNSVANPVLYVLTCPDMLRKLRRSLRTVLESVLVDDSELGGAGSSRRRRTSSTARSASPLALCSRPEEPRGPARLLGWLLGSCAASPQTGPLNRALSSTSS

[2] = tested on: PGD2 induced eosinophil shape change; assay: Human whole blood eosinophil shape change assay; format: cell-based; conditions: for IC50: Eosinophil, human whole blood, 10 nM PGD2, read-out: IC50 Values for the Effect of Test Compounds on 10 nM PGD2-induced Eosinophil Shape Change; for activity in whole blood, in words: summary statement on Table 2
Procedure: Compounds 1 to 9 were assayed for their effect on PGD2 induced eosinophil shape change.
Compounds (1 μl, 200× final concentration) were added directly to 200 μl whole blood, mixed well and incubated for 15 min, 37° C., 5% CO2. After this time, cell shape was fixed by addition of 300 μl Cytofix™ buffer (BD Biosciences), 15 min on ice. 10 ml RBC lysis buffer was added to the fixed cells, incubated 5 min, at room temperature and centrifuged, 300×g for 5 min. Supernatant (containing lysed red cells) was removed and the lysis step was repeated. Leukocytes were resuspended in 250 μl RPMI/10% FCS and shape change analysed by FACS. Eosinophils were gated out based on their autofluorescence and 2000 eosinophil events were counted per sample. Data were analysed in triplicate.

CRTH2 Receptor [3] = biological target: T1, CRTH2 Receptor; assay: Radioligand binding assay, [3H]PGD2 on CHO/CRTH2 cell membranes; conditions: [3H]PGD2 competition
Procedure: Chinese Hamster Ovary cells were transfected with CRTH2 or DP receptors (CHO/CRTH2 and CHO/DP) and were maintained in culture in a humidified atmosphere at 37° C. (5% CO2) in Minimum Essential Medium (MEM) supplemented with 10% foetal bovine serum, 2 mM glutamine, and 1 mg ml^−1 active G418. The cells were passaged every 2-3 days. For radioligand binding assay, cells were prepared in triple-layer flasks or in 175 cm^2 square flasks (for membrane preparation.
Membranes were prepared either from CHO/CRTH2 and CHO/DP cells, or from platelets (as a source of TP receptors). CHO cells grown to confluency were washed with PBS and detached using a Versene solution (15 ml per flask). When the cells were grown in 175 cm^2 square flask, they were collected by scrapping in PBS. The cell suspensions were centrifuged (1,700 rpm, 10 min, 4° C.) and resuspended in 15 ml of buffer (1×HBSS, supplemented with 10 mM HEPES, pH 7.3). Cell suspensions were then homogenised using an Ultra Turrax at setting 4-6 for 20 s. The homogenate was centrifuged at 1,700 rpm for 10 min and the supernatant was collected and centrifuged at 20,000 rpm for 1 h at 4° C. The resulting pellet was resuspended in buffer and stored at −80° C. in aliquots of 200-500 μl. The protein concentration was determined by the method of Bradford (1976), using bovine serum albumin as standard. The platelets were washed by centrifugation at 600×g for 10 min and resuspended in ice-cold assay buffer (10 mM Tris-HCl, pH 7.4, 5 mM Glucose, 120 mM NaCl, 10 μM indomethacin) and directly centrifuged at 20,000 rpm for 30 min at 4° C. The resulting pellet was treated as described above.
[^3H]PGD2 (160 Ci/mmol) binding experiments were performed on membranes prepared as described above. Assays were performed in a final volume of 100 μl of buffer (1×HBSS/HEPES 10 mM, pH 7.3). Cell membranes (15 μg) were preincubated at room temperature with varying concentration of competing ligand for 15 min. [^3H]PGD2 was then added and the incubation continued for a further one hour at room temperature. The reaction was terminated by the addition of 200 μl ice-cold assay buffer to each well, followed by rapid filtration through Whatman GF/B glass fibre filters using a Unifilter Cell harvester (PerkinElmer Life Sciences) and six washes of 300 μl of ice-cold buffer. The Unifilter plates were dried at room temperature for at least 1 h and the radioactivity retained on the filters was determined on a Beta Trilux counter (PerkinElmer Life Sciences), following addition of 40 μl of Optiphase Hi-Safe 3 (Wallac) liquid scintillation. Non specific binding was defined in the presence of 10 μM unlabelled PGD2. Assays were performed in duplicate.

Structure (SMILES)	intrinsic activity (CRTH2 antagonist), in words (CRTH2 Receptor [1])	IC50 [2] [nM]	activity in whole blood, in words [2]	Ki (CRTH2 Receptor [3]) [nM]
Cc1c(Cc2ccccc2S(=O)(=O)C2CCCCC2)c2cc(F)ccc2n1CC(=O)O [Compound 1, 2-(3-(2-(Cyclohexylsulfonyl)benzyl)-5-fluoro-2-methyl-1H-indol-1-yl)acetic acid]	high intrinsic activity	6	activity is maintained in whole blood	0.02
Cc1c(Cc2ccccc2S(=O)(=O)N2CCCCC2)c2cc(F)ccc2n1CC(=O)O [Compound 2, 2-(5-Fluoro-2-methyl-3-(2-(piperidin-1-ylsulfonyl)benzyl)-1H-indol-1-yl)acetic Acid]	high intrinsic activity	5	activity is maintained in whole blood	0.04
Cc1c(Cc2ccccc2S(=O)(=O)C2CCCC2)c2cc(F)ccc2n1CC(=O)O [Compound 3, 2-(3-(2-(Cyclopentylsulfonyl)benzyl)-5-fluoro-2-methyl-1H-indol-1-yl)acetic Acid]	high intrinsic activity	7	activity is maintained in whole blood	0.2
Cc1c(Cc2cccc(S(=O)(=O)N3CCCCC3)c2)c2cc(F)ccc2n1CC(=O)O [Compound 4, 2-(5-Fluoro-2-methyl-3-(3-(piperidin-1-ylsulfonyl)benzyl)-1H-indol-1-yl)acetic Acid]	–	–	–	55
Cc1c(Cc2ccccc2S(=O)(=O)N2CCCC2)c2cc(F)ccc2n1CC(=O)O [Compound 5, 2-(5-Fluoro-2-methyl-3-(2-(pyrrolidin-1-ylsulfonyl)benzyl)-1H-indol-1-yl)acetic Acid]	high intrinsic activity	5	activity is maintained in whole blood	–
Cc1c(Cc2ccc(S(=O)(=O)C3CCCCC3)cc2)c2cc(F)ccc2n1CC(=O)O [Compound 6, 2-(3-(4-(Cyclohexylsulfonyl)benzyl)-5-fluoro-2-methyl-1H-indol-1-yl)acetic Acid]	–	85	–	2
Cc1c(Cc2ccc(S(=O)(=O)C3CCCC3)cc2)c2cc(F)ccc2n1CC(=O)O [Compound 7, 2-(3-(4-(Cyclopentylsulfonyl)benzyl)-5-fluoro-2-methyl-1H-indol-1-yl)acetic Acid]	–	44	–	5
Cc1c(Cc2ccccc2S(=O)(=O)C2CCC2)c2cc(F)ccc2n1CC(=O)O [Compound 8, 2-(3-(2-(Cyclobutylsulfonyl)benzyl)-5-fluoro-2-methyl-1H-indol-1-yl)acetic Acid]	–	240	–	3
Cc1c(Cc2cccc(S(=O)(=O)N3CCCC3)c2)c2cc(F)ccc2n1CC(=O)O [Compound 9, 2-(5-Fluoro-2-methyl-3-(3-(pyrrolidin-1-ylsulfonyl)benzyl)-1H-indol-1-yl)acetic Acid]	–	–	–	100
Cc1c(Cc2ccc(S(=O)(=O)N3CCCCC3)cc2)c2cc(F)ccc2n1CC(=O)O [Compound 10, 2-(5-Fluoro-2-methyl-3-(4-(piperidin-1-ylsulfonyl)benzyl)-1H-indol-1-yl)acetic Acid]	–	–	–	1
